Laboratory results published in PubChem BioAssay AID248 (DTP/NCI, 2004).
Inconclusive results and toxic doses are left out. No stated cut-off is given here; in the data, active means T/C of 150% or more; inactive means T/C below 125%.

Test system: L1210 leukemia ip in BDF1 mice, survival T/C
Experiment: NCI In Vivo Anticancer Drug Screen. Data for tumor model L1210 Leukemia (intraperitoneal) in B6D2F1 (BDF1) mice
Settings: endpoint: mean survival time, higher = longer survival
How it was run: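 Survival endpoint. Drug-treated group vs vehicle group, expressed as T divided by C. Tumor passaged by transplantation.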

[1] = dose: 100.0 mg/kg/injection, schedule: Q04DX002 (ip), vehicle: saline with Tween-80
[2] = dose: 200.0 mg/kg/injection, schedule: Q04DX002 (ip), vehicle: saline with Tween-80
[3] = dose: 100.0 mg/kg/injection, schedule: Q04DX003 (ip), vehicle: saline with Tween-80
[4] = dose: 200.0 mg/kg/injection, schedule: Q04DX003 (ip), vehicle: saline with Tween-80
[5] = dose: 400.0 mg/kg/injection, schedule: Q04DX003 (ip), vehicle: saline with Tween-80
[6] = dose: 100.0 mg/kg/injection, schedule: Q01DX001 (ip), vehicle: carboxymethylcellulose (CMC)
[7] = dose: 200.0 mg/kg/injection, schedule: Q01DX001 (ip), vehicle: carboxymethylcellulose (CMC)
[8] = dose: 400.0 mg/kg/injection, schedule: Q01DX001 (ip), vehicle: carboxymethylcellulose (CMC)

Measured: T/C

Cc1ccc([P+](Cc2ccccc2)(c2ccccc2)c2cccc3ccccc23)cc1 (stereo not given)
inactive: dose: 15.0 mg/kg/injection, schedule: Q01DX001 (ip), vehicle: carboxymethylcellulose (CMC) 94 % of control | dose: 30.0 mg/kg/injection, schedule: Q01DX001 (ip), vehicle: carboxymethylcellulose (CMC) 93 % of control

CN(C)NC(=O)/C=C\C(=O)O
inactive: [1] 93 % of control | [2] 100 % of control | dose: 400.0 mg/kg/injection, schedule: Q04DX002 (ip), vehicle: saline with Tween-80 93 % of control

NNc1ccc(-c2ccccc2)cc1
inactive: dose: 75.0 mg/kg/injection, schedule: Q01DX001 (ip), vehicle: carboxymethylcellulose (CMC) 95 % of control | dose: 150.0 mg/kg/injection, schedule: Q01DX001 (ip), vehicle: carboxymethylcellulose (CMC) 92 % of control | dose: 300.0 mg/kg/injection, schedule: Q01DX001 (ip), vehicle: carboxymethylcellulose (CMC) 97 % of control

COc1ccc(COc2ccc([N+](=O)[O-])cc2)cc1
inactive: dose: 50.0 mg/kg/injection, schedule: Q04DX002 (ip), vehicle: saline with Tween-80 101 % of control | [1] 104 % of control | [2] 97 % of control

CN1C(=O)C(c2ccccc2)(c2ccccc2)C(Br)=C1c1ccccc1
inactive: dose: 50.0 mg/kg/injection, schedule: Q01DX001 (ip), vehicle: saline 107 % of control | dose: 100.0 mg/kg/injection, schedule: Q01DX001 (ip), vehicle: saline 91 % of control | dose: 200.0 mg/kg/injection, schedule: Q01DX001 (ip), vehicle: saline 96 % of control | dose: 400.0 mg/kg/injection, schedule: Q01DX001 (ip), vehicle: saline 102 % of control

CCCCCCCCCCN1CCN2C(=O)N(CC)CCC2C1 (stereo not given)
inactive: dose: 25.0 mg/kg/injection, schedule: Q04DX003 (ip), vehicle: saline with Tween-80 94 % of control | dose: 50.0 mg/kg/injection, schedule: Q04DX003 (ip), vehicle: saline with Tween-80 105 % of control | dose: 100.0 mg/kg/injection, schedule: Q01DX001 (ip), vehicle: saline with Tween-80 96 % of control | [3] 94 % of control

COc1ccc(Br)cc1CCCO
inactive: [3] 94 % of control | [4] 92 % of control | [5] 95 % of control

Cc1cc(C)c(OCC2CO2)c(C)c1 (stereo not given)
inactive: dose: 100.0 mg/kg/injection, schedule: Q04DX003 (ip), vehicle: Klucel (hydroxypropylcellulose) (HPC) 105 % of control | dose: 200.0 mg/kg/injection, schedule: Q04DX003 (ip), vehicle: Klucel (hydroxypropylcellulose) (HPC) 95 % of control | dose: 400.0 mg/kg/injection, schedule: Q04DX003 (ip), vehicle: Klucel (hydroxypropylcellulose) (HPC) 89 % of control

O=C(CCCl)N1CCN(C(=O)CCCl)c2ccccc21
inactive: [6] 103 % of control | [7] 96 % of control | [8] 96 % of control

CCC(C(C)=O)C(C)=O.CCC(C(C)=O)C(C)=O.[Cu]
inactive: dose: 6.0 mg/kg/injection, schedule: Q01DX001 (ip), vehicle: saline 95 % of control | dose: 12.0 mg/kg/injection, schedule: Q01DX001 (ip), vehicle: saline 101 % of control | dose: 25.0 mg/kg/injection, schedule: Q01DX001 (ip), vehicle: saline 112 % of control

CC(=O)OCC(=O)[C@@]1(O)CC[C@H]2[C@@H]3CCC4=CC(=O)CC[C@]4(C)[C@H]3[C@@H](O)C[C@@]21C
inactive: dose: 1.13 mg/kg/injection, schedule: Q01DX Z (sc), vehicle: steriod suspending solution 102 % of control | dose: 2.25 mg/kg/injection, schedule: Q01DX Z (sc), vehicle: steriod suspending solution 107 % of control | dose: 4.5 mg/kg/injection, schedule: Q01DX Z (sc), vehicle: steriod suspending solution 102 % of control | dose: 9.0 mg/kg/injection, schedule: Q01DX Z (sc), vehicle: steriod suspending solution 101 % of control | dose: 25.0 mg/kg/injection, schedule: Q01DX Z (sc), vehicle: steriod suspending solution 87 % of control | dose: 50.0 mg/kg/injection, schedule: Q01DX Z (sc), vehicle: steriod suspending solution 102 % of control | dose: 100.0 mg/kg/injection, schedule: Q01DX009 (ip), vehicle: saline with Tween-80 105 % of control | dose: 100.0 mg/kg/injection, schedule: Q01DX Z (sc), vehicle: steriod suspending solution 106 % of control | [3] 104 % of control | dose: 200.0 mg/kg/injection, schedule: Q01DX009 (ip), vehicle: saline with Tween-80 104 % of control | dose: 200.0 mg/kg/injection, schedule: Q01DX009 (sc), vehicle: other 104 % of control | dose: 200.0 mg/kg/injection, schedule: Q01DX Z (sc), vehicle: steriod suspending solution 110 % of control | [4] 99 % of control | dose: 400.0 mg/kg/injection, schedule: Q01DX001 (sc), vehicle: steriod suspending solution 92 % of control | dose: 400.0 mg/kg/injection, schedule: Q01DX009 (ip), vehicle: saline with Tween-80 98 % of control | dose: 400.0 mg/kg/injection, schedule: Q01DX009 (sc), vehicle: other 102 % of control | [5] 100 % of control | dose: 600.0 mg/kg/injection, schedule: Q01DX009 (sc), vehicle: other 96 % of control | dose: 800.0 mg/kg/injection, schedule: Q01DX001 (sc), vehicle: steriod suspending solution 97 % of control | dose: 800.0 mg/kg/injection, schedule: Q01DX009 (sc), vehicle: other 101 % of control | dose: 1200.0 mg/kg/injection, schedule: Q01DX001 (sc), vehicle: steriod suspending solution 101 % of control | dose: 1600.0 mg/kg/injection, schedule: Q01DX001 (sc), vehicle: steriod suspending solution 100 % of control

CC(C)(C(Cl)Cl)S(=O)(=O)O (tested in a mixture with another compound)
inactive: dose: 9.0 mg/kg/injection, schedule: Q01DX001 (ip), vehicle: other 95 % of control | dose: 18.0 mg/kg/injection, schedule: Q01DX001 (ip), vehicle: other 106 % of control | dose: 37.0 mg/kg/injection, schedule: Q01DX001 (ip), vehicle: other 103 % of control | dose: 75.0 mg/kg/injection, schedule: Q01DX001 (ip), vehicle: other 98 % of control | dose: 75.0 mg/kg/injection, schedule: Q01DX009 (ip), vehicle: saline with Tween-80 107 % of control | dose: 75.0 mg/kg/injection, schedule: Q04DX003 (ip), vehicle: other 111 % of control | dose: 150.0 mg/kg/injection, schedule: Q01DX001 (ip), vehicle: other 101 % of control | dose: 150.0 mg/kg/injection, schedule: Q01DX009 (ip), vehicle: saline with Tween-80 105 % of control | dose: 150.0 mg/kg/injection, schedule: Q04DX003 (ip), vehicle: other 118 % of control | dose: 300.0 mg/kg/injection, schedule: Q01DX001 (ip), vehicle: other 113 % of control | dose: 300.0 mg/kg/injection, schedule: Q01DX009 (ip), vehicle: saline with Tween-80 102 % of control | dose: 300.0 mg/kg/injection, schedule: Q04DX003 (ip), vehicle: other 116 % of control

Oc1ccccc1/C=N/Nc1nnc(N/N=C/c2ccccc2O)c2ccccc12
inactive: dose: 50.0 mg/kg/injection, schedule: Q01DX001 (ip), vehicle: carboxymethylcellulose (CMC) 109 % of control | [6] 96 % of control | [7] 97 % of control | [8] 90 % of control

Cc1nc([Se]c2nc(C)n3ccncc23)c2cnccn12
inactive: [3] 98 % of control | [4] 95 % of control | [5] 93 % of control

CC(=O)Nc1c(Br)cc2c(c1Br)Cc1cc(Br)ccc1-2
inactive: [6] 111 % of control | [7] 97 % of control | [8] 108 % of control
